Earlier results, collected in patent publication US10080720B2, “Pharmaceutical composition containing docetaxel” (GAINIA (SHANGHAI) PATENT TECHNOLOGY LTD., priority 2014, dated 2018).

In the case of `CC(=O)O[C@@]12CO[C@@H]1C[C@H](O)[C@@]1(C)C(=O)[C@H](O)C3=C(C)[C@@H](OC(=O)[C@H](O)[C@@H](NC(=O)OC(C)(C)C)c4ccccc4)C[C@@](O)([C@@H](OC(=O)c4ccccc4)[C@H]21)C3(C)C` [docetaxel], the “solubility of docetaxel in water” value is given as 6 to 7 µg/mL.
